The values that follow come from article PMC9059125 (Journal of Medicinal Chemistry, 2022).

For data set [1] the following is noted: simulated gi fluid, pH 6.8.
The target of data set [2] is T1, human oxytocin receptor (OTR) (Homo sapiens, UniProt P30559).
T1 construct: NIMH PDSP (data provider)
T1 sequence (P30559 1-389): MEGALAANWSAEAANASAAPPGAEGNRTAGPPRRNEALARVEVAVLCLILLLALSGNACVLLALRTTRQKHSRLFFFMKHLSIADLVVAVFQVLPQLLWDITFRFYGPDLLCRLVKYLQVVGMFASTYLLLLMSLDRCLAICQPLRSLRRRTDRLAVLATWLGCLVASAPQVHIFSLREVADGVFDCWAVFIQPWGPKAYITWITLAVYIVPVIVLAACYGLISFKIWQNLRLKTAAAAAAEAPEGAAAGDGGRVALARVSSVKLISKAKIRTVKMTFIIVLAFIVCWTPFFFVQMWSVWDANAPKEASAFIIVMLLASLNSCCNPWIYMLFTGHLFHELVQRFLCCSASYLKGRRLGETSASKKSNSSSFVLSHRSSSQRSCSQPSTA
As to the kind of experiment: NIMH PDSP FLIPR-TETRA Ca2+-mobilization assay. The format is cell-based. Conditions: agonist, Ca2+ assay, NIMH PDSP, n ≥ 2; read-out: EC50 ± SEM OTR.

For data set [3] the following is noted: simulated gi fluid, pH 1.2.

Read-outs that look alike come from different tables or passages of the source. Where a SMILES comes first, the peptide text is derived from it.

What is called EC50 is the concentration giving half of the maximal effect. Regarding `[H][C@@]12CCCN1C(=O)[C@]1([H])CCCN1C(=O)[C@H]([C@@H](C)CC)NC(=O)[C@H](CO)NC(=O)[C@H](CCCCN)NC(=O)[C@H]([C@@H](C)O)NC(=O)[C@@H]1CSSC[C@H](NC(=O)[C@H]([C@@H](C)CC)NC2=O)C(=O)N[C@@H](Cc2ccc(O)cc2)C(=O)N[C@@H]([C@@H](C)CC)C(=O)N[C@@H](CCC(N)=O)C(=O)N[C@@H](CC(N)=O)C(=O)N1` [SFTI-1(OT^[2-5])] (HELM PEPTIDE1{C.T.K.S.I.P.P.I.C.Y.I.Q.N}$PEPTIDE1,PEPTIDE1,1:R3-9:R3|PEPTIDE1,PEPTIDE1,1:R1-13:R2$$$V2.0), the “t1/2 SIF” value in data set [1] (pig) is listed as 31 ± 3 min. In addition, the EC50 in data set [2] is above 30 µM.

With `[H][C@@]12CCCN1C(=O)[C@H](CC)NC(=O)[C@H](CC(N)=O)NC(=O)[C@H](CCC(N)=O)NC(=O)[C@H]([C@@H](C)CC)NC(=O)[C@H](Cc1ccc(O)cc1)NC(=O)[C@@H]1CSSC[C@H](NC(=O)CNC(=O)[C@H](CC(C)C)NC2=O)C(=O)N[C@@H]([C@@H](C)O)C(=O)N[C@@H](CCCCN)C(=O)N[C@@H](CO)C(=O)N[C@@H]([C@@H](C)CC)C(=O)N2CCC[C@@]2([H])C(=O)N2CCC[C@@]2([H])C(=O)N[C@@H]([C@@H](C)CC)C(=O)N1` [SFTI-1(OT^[2-9])] (HELM PEPTIDE1{[Abu].P.L.G.C.T.K.S.I.P.P.I.C.Y.I.Q.N}$PEPTIDE1,PEPTIDE1,5:R3-13:R3|PEPTIDE1,PEPTIDE1,1:R1-17:R2$$$V2.0), in data set [1] (pig), the “t1/2 SIF” value is 3 ± 1 min. Moreover, the 50% effective concentration (EC50) in data set [2] was above 30 µM.

With `[H][C@@]12CCCN1C(=O)[C@]1([H])CCCN1C(=O)[C@H]([C@@H](C)CC)NC(=O)[C@H](CO)NC(=O)[C@H](CCCCN)NC(=O)[C@H]([C@@H](C)O)NC(=O)[C@@H]1CSSC[C@H](NC(=O)[C@H]([C@@H](C)CC)NC2=O)C(=O)N[C@@H](Cc2ccc(O)cc2)C(=O)N[C@@H](Cc2ccccc2)C(=O)N[C@@H](CCC(N)=O)C(=O)N[C@@H](CC(N)=O)C(=O)N1` [SFTI-1(VP^[2-5])] (HELM PEPTIDE1{C.T.K.S.I.P.P.I.C.Y.F.Q.N}$PEPTIDE1,PEPTIDE1,1:R3-9:R3|PEPTIDE1,PEPTIDE1,1:R1-13:R2$$$V2.0), the “t1/2 SIF” value in data set [1] (pig) is 12 ± 1 min. In data set [2], the EC50 was above 30 µM.

Consider `[H][C@@]12CCCN1C(=O)[C@H](CC)NC(=O)[C@H](CC(N)=O)NC(=O)[C@H](CCC(N)=O)NC(=O)[C@H](Cc1ccccc1)NC(=O)[C@H](Cc1ccc(O)cc1)NC(=O)[C@@H]1CSSC[C@H](NC(=O)CNC(=O)[C@H](CCCNC(=N)N)NC2=O)C(=O)N[C@@H]([C@@H](C)O)C(=O)N[C@@H](CCCCN)C(=O)N[C@@H](CO)C(=O)N[C@@H]([C@@H](C)CC)C(=O)N2CCC[C@@]2([H])C(=O)N2CCC[C@@]2([H])C(=O)N[C@@H]([C@@H](C)CC)C(=O)N1` [SFTI-1(VP^[2-9])] (HELM PEPTIDE1{[Abu].P.R.G.C.T.K.S.I.P.P.I.C.Y.F.Q.N}$PEPTIDE1,PEPTIDE1,5:R3-13:R3|PEPTIDE1,PEPTIDE1,1:R1-17:R2$$$V2.0), for which the “t1/2 SIF” value in data set [1] is listed as below 3 min. In data set [2], the EC50 was above 30 µM.

Turning to `CC[C@H](C)[C@@H]1NC(=O)[C@H](CCC(=O)O)NC(=O)[C@@H]2CCCN2C(=O)[C@H](Cc2cnc[nH]2)NC(=O)[C@H](CC(=O)O)NC(=O)[C@H](Cc2ccc(O)cc2)NC(=O)[C@H](CC(N)=O)NC(=O)[C@@H]2CSSC[C@H](NC(=O)CN)C(=O)N[C@@H](CSSC[C@@H](C(N)=O)NC1=O)C(=O)N[C@@H](CO)C(=O)N[C@@H](CC(=O)O)C(=O)N1CCC[C@H]1C(=O)N[C@@H](CCCNC(=N)N)C(=O)N2` [Vc1.1, reference compound], the “t1/2 SIF” value in data set [1] (pig) is 144 ± 12 min. Also, in data set [3], the “t1/2 SGF” value was above 1440 min.

Turning to `[H][C@@]12CCCN1C(=O)[C@@H]1CSSC[C@H](NC(=O)CNC(=O)[C@H](CC(C)C)NC(=O)[C@]3([H])CCCN3C(=O)[C@@H]3CSSC[C@H](NC(=O)CNC(=O)[C@H](CC(C)C)NC2=O)C(=O)N[C@@H](Cc2ccc(O)cc2)C(=O)N[C@@H]([C@@H](C)CC)C(=O)N[C@@H](CCC(N)=O)C(=O)N[C@@H](CC(N)=O)C(=O)N3)C(=O)N[C@@H](Cc2ccc(O)cc2)C(=O)N[C@@H]([C@@H](C)CC)C(=O)N[C@@H](CCC(N)=O)C(=O)N[C@@H](CC(N)=O)C(=O)N1` [c(OT)2] (HELM PEPTIDE1{C.P.L.G.C.Y.I.Q.N.C.P.L.G.C.Y.I.Q.N}$PEPTIDE1,PEPTIDE1,1:R3-14:R3|PEPTIDE1,PEPTIDE1,5:R3-10:R3|PEPTIDE1,PEPTIDE1,1:R1-18:R2$$$V2.0), the “t1/2 SIF” value in data set [1] was below 3 min.

As to `[H][C@@]12CCCN1C(=O)[C@@H]1CSSC[C@H](NC(=O)CNC(=O)[C@H](CC(C)C)NC(=O)[C@]3([H])CCCN3C(=O)[C@@H]3CSSC[C@H](NC(=O)CNC(=O)[C@H](CCCNC(=N)N)NC2=O)C(=O)N[C@@H](Cc2ccc(O)cc2)C(=O)N[C@@H]([C@@H](C)CC)C(=O)N[C@@H](CCC(N)=O)C(=O)N[C@@H](CC(N)=O)C(=O)N3)C(=O)N[C@@H](Cc2ccc(O)cc2)C(=O)N[C@@H](Cc2ccccc2)C(=O)N[C@@H](CCC(N)=O)C(=O)N[C@@H](CC(N)=O)C(=O)N1` [c(OT-VP)] (HELM PEPTIDE1{C.P.L.G.C.Y.F.Q.N.C.P.R.G.C.Y.I.Q.N}$PEPTIDE1,PEPTIDE1,1:R3-14:R3|PEPTIDE1,PEPTIDE1,5:R3-10:R3|PEPTIDE1,PEPTIDE1,1:R1-18:R2$$$V2.0), in data set [1], the “t1/2 SIF” value is recorded as below 3 min.

For the compound `[H][C@@]12CCCN1C(=O)[C@@H]1CSSC[C@H](NC(=O)CNC(=O)[C@H](CCCNC(=N)N)NC(=O)[C@]3([H])CCCN3C(=O)[C@@H]3CSSC[C@H](NC(=O)CNC(=O)[C@H](CCCNC(=N)N)NC2=O)C(=O)N[C@@H](Cc2ccc(O)cc2)C(=O)N[C@@H](Cc2ccccc2)C(=O)N[C@@H](CCC(N)=O)C(=O)N[C@@H](CC(N)=O)C(=O)N3)C(=O)N[C@@H](Cc2ccc(O)cc2)C(=O)N[C@@H](Cc2ccccc2)C(=O)N[C@@H](CCC(N)=O)C(=O)N[C@@H](CC(N)=O)C(=O)N1` [c(VP)2] (HELM PEPTIDE1{C.P.R.G.C.Y.F.Q.N.C.P.R.G.C.Y.F.Q.N}$PEPTIDE1,PEPTIDE1,1:R3-14:R3|PEPTIDE1,PEPTIDE1,5:R3-10:R3|PEPTIDE1,PEPTIDE1,1:R1-18:R2$$$V2.0), in data set [1], the “t1/2 SIF” value is recorded as below 3 min.
